Experimental data from the supplement of paper PMC10307832.

What was measured:
Assay in all cases: relative viability (nuclei count vs DMSO), 5 days (fraction); higher = more cells survive
COR-L23 = system: COR-L23
Procedure, shortened: (§1)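 One day after seeding in 1536-well plates, lung cancer cell lines were dosed by pin tool. Dosing was either single-drug or a fixed anchor-drug dose plus five library-drug doses (not always all listed) in √10 steps. After 5 days, nuclei were stained in one fix-and-stain step and counted on 4× images, and relative viability is the nuclei count of treated wells over that of vehicle wells, given as the median of duplicate plates.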

NCI-H650 = system: NCI-H650
Procedure, shortened: as §1

EMC-BAC-2 = system: EMC-BAC-2
Procedure, shortened: as §1

NCI-H1793 = system: NCI-H1793
Procedure, shortened: as §1

HCC-366 = system: HCC-366
Procedure, shortened: as §1

NCI-H2347 = system: NCI-H2347
Procedure, shortened: as §1

NCI-H2009 = system: NCI-H2009
Procedure, shortened: as §1

NCI-H1395 = system: NCI-H1395
Procedure, shortened: as §1

NCI-H1755 = system: NCI-H1755
Procedure, shortened: as §1

NCI-H1437 = system: NCI-H1437
Procedure, shortened: as §1

NCI-H23 = system: NCI-H23
Procedure, shortened: as §1

SK-MES-1 = system: SK-MES-1
Procedure, shortened: as §1

NCI-H2342 = system: NCI-H2342
Procedure, shortened: as §1

NCI-H358 = system: NCI-H358
Procedure, shortened: as §1

LC-2-ad = system: LC-2-ad
Procedure, shortened: as §1

201T = system: 201T
Procedure, shortened: as §1

COR-L 105 = system: COR-L 105
Procedure, shortened: as §1

NCI-H2023 = system: NCI-H2023
Procedure, shortened: as §1

NCI-H1915 = system: NCI-H1915
Procedure, shortened: as §1

HCC-15 = system: HCC-15
Procedure, shortened: as §1

PC-14 = system: PC-14
Procedure, shortened: as §1

Compound `Cc1csc(=NC2CCCCC2)n1/N=C/c1ccc(O)c(O)c1O` [MIM1] + COc1cc2c(Oc3ccc(NC(=O)C4(C(=O)Nc5ccc(F)cc5)CC4)cc3F)ccnc2cc1OCCCN1CCOCC1 [Foretinib] (partner 0.25 µM) has a relative viability (COR-L23; first compound 0.2 µM) of 0.992, a relative viability (COR-L23; first compound 0.6325 µM) of 0.935 and a relative viability (COR-L23; first compound 2 µM) of 0.839. For the same compound, the relative viability (COR-L23; first compound 6.325 µM) was 0.802, the relative viability (COR-L23; first compound 20 µM) was 0.547 and the relative viability (NCI-H650; first compound 0.2 µM) was 1.05. For the same compound, the relative viability (NCI-H650; first compound 0.6325 µM) was 1.05, the relative viability (NCI-H650; first compound 2 µM) was 1.02 and the relative viability (NCI-H650; first compound 6.325 µM) was 0.924. It also gave a relative viability (NCI-H650; first compound 20 µM) of 0.412, a relative viability (EMC-BAC-2; first compound 0.2 µM) of 0.698 and a relative viability (EMC-BAC-2; first compound 0.6325 µM) of 1. The relative viability (EMC-BAC-2; first compound 2 µM) was 0.963, the relative viability (EMC-BAC-2; first compound 6.325 µM) was 0.697 and the relative viability (EMC-BAC-2; first compound 20 µM) was 0.449. The relative viability (NCI-H1793; first compound 0.2 µM) was 0.793, the relative viability (NCI-H1793; first compound 2 µM) was 0.735 and the relative viability (NCI-H1793; first compound 6.325 µM) was 0.686. It also gave a relative viability (NCI-H1793; first compound 20 µM) of 1.01, a relative viability (HCC-366; first compound 0.2 µM) of 0.927 and a relative viability (HCC-366; first compound 2 µM) of 0.993. The relative viability (HCC-366; first compound 6.325 µM) was 0.782, the relative viability (HCC-366; first compound 20 µM) was 0.077 and the relative viability (NCI-H2347; first compound 0.2 µM) was 0.953. It also gave a relative viability (NCI-H2347; first compound 0.6325 µM) of 0.568, a relative viability (NCI-H2347; first compound 2 µM) of 0.567 and a relative viability (NCI-H2347; first compound 6.325 µM) of 1.18. For the same compound, the relative viability (NCI-H2347; first compound 20 µM) was 0.445, the relative viability (NCI-H2009; first compound 0.2 µM) was 1.19 and the relative viability (NCI-H2009; first compound 0.6325 µM) was 1.25. It also gave a relative viability (NCI-H2009; first compound 2 µM) of 1.27, a relative viability (NCI-H2009; first compound 6.325 µM) of 1.09 and a relative viability (NCI-H2009; first compound 20 µM) of 0.566. For the same compound, the relative viability (NCI-H1395; first compound 0.2 µM) was 1.03, the relative viability (NCI-H1395; first compound 0.6325 µM) was 0.975 and the relative viability (NCI-H1395; first compound 2 µM) was 0.905. The relative viability (NCI-H1395; first compound 6.325 µM) was 0.917, the relative viability (NCI-H1395; first compound 20 µM) was 0.388 and the relative viability (NCI-H1755; first compound 0.2 µM) was 0.882. The relative viability (NCI-H1755; first compound 0.6325 µM) was 0.927, the relative viability (NCI-H1755; first compound 2 µM) was 0.902 and the relative viability (NCI-H1755; first compound 6.325 µM) was 0.72. For the same compound, the relative viability (NCI-H1755; first compound 20 µM) was 0.563, the relative viability (NCI-H1437; first compound 0.2 µM) was 1.24 and the relative viability (NCI-H1437; first compound 0.6325 µM) was 1.34. It also gave a relative viability (NCI-H1437; first compound 2 µM) of 1.19, a relative viability (NCI-H1437; first compound 6.325 µM) of 1.1 and a relative viability (NCI-H1437; first compound 20 µM) of 0.243. The relative viability (NCI-H23; first compound 0.2 µM) was 1.07, the relative viability (NCI-H23; first compound 2 µM) was 0.791 and the relative viability (NCI-H23; first compound 6.325 µM) was 0.812. The relative viability (NCI-H23; first compound 20 µM) was 0.263, the relative viability (SK-MES-1; first compound 0.2 µM) was 0.897 and the relative viability (SK-MES-1; first compound 0.6325 µM) was 0.891. For the same compound, the relative viability (SK-MES-1; first compound 2 µM) was 0.861, the relative viability (SK-MES-1; first compound 6.325 µM) was 0.805 and the relative viability (SK-MES-1; first compound 20 µM) was 0.758. The relative viability (NCI-H2342; first compound 0.2 µM) was 1.25, the relative viability (NCI-H2342; first compound 0.6325 µM) was 0.952 and the relative viability (NCI-H2342; first compound 2 µM) was 1.07. It also gave a relative viability (NCI-H2342; first compound 6.325 µM) of 0.952, a relative viability (NCI-H2342; first compound 20 µM) of 1.11 and a relative viability (NCI-H358; first compound 0.2 µM) of 0.646. For the same compound, the relative viability (NCI-H358; first compound 0.6325 µM) was 0.758, the relative viability (NCI-H358; first compound 2 µM) was 0.623 and the relative viability (NCI-H358; first compound 6.325 µM) was 0.348. The relative viability (NCI-H358; first compound 20 µM) was 0.149, the relative viability (LC-2-ad; first compound 0.2 µM) was 0.896 and the relative viability (LC-2-ad; first compound 0.6325 µM) was 0.783. For the same compound, the relative viability (LC-2-ad; first compound 2 µM) was 0.745, the relative viability (LC-2-ad; first compound 6.325 µM) was 0.631 and the relative viability (LC-2-ad; first compound 20 µM) was 0.159. It also gave a relative viability (201T; first compound 0.2 µM) of 1.11, a relative viability (201T; first compound 2 µM) of 0.993 and a relative viability (201T; first compound 6.325 µM) of 0.709. It also gave a relative viability (201T; first compound 20 µM) of 0.483, a relative viability (COR-L 105; first compound 0.2 µM) of 1.02 and a relative viability (COR-L 105; first compound 0.6325 µM) of 0.821. For the same compound, the relative viability (COR-L 105; first compound 2 µM) was 1.19, the relative viability (COR-L 105; first compound 6.325 µM) was 1.08 and the relative viability (COR-L 105; first compound 20 µM) was 0.774. For the same compound, the relative viability (NCI-H2023; first compound 0.2 µM) was 0.691, the relative viability (NCI-H2023; first compound 0.6325 µM) was 0.941 and the relative viability (NCI-H2023; first compound 2 µM) was 0.7. The relative viability (NCI-H2023; first compound 6.325 µM) was 0.599, the relative viability (NCI-H2023; first compound 20 µM) was 0.453 and the relative viability (NCI-H1915; first compound 0.2 µM) was 1.13. It also gave a relative viability (NCI-H1915; first compound 0.6325 µM) of 1.07, a relative viability (NCI-H1915; first compound 2 µM) of 1.07 and a relative viability (NCI-H1915; first compound 6.325 µM) of 0.83. For the same compound, the relative viability (NCI-H1915; first compound 20 µM) was 0.251, the relative viability (HCC-15; first compound 0.2 µM) was 1.09 and the relative viability (HCC-15; first compound 2 µM) was 1.06. It also gave a relative viability (HCC-15; first compound 6.325 µM) of 0.764, a relative viability (HCC-15; first compound 20 µM) of 0.157 and a relative viability (PC-14; first compound 0.2 µM) of 0.931. The relative viability (PC-14; first compound 0.6325 µM) was 0.942, the relative viability (PC-14; first compound 2 µM) was 0.908 and the relative viability (PC-14; first compound 6.325 µM) was 0.784. For the same compound, the relative viability (PC-14; first compound 20 µM) was 0.629.
